Values joined by “and” are separate entries in the source; they are usually repeats but may differ in a detail not shown here. Identical values can stand only once. Results filed as inconclusive are left out.
Test system: MX-1 breast xenograft, intrarenal, nude mice, tumor weight
Assay: NCI In Vivo Anticancer Drug Screen. Data for tumor model Human Mammary Carcinoma MX-1 Xenograft (intrarenal inoculation) in NU/NU BALB/C (nude) mice
Conditions: endpoint: mean tumor weight change, higher = larger tumour
Outline: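 Mice w/ transplanted tumors, drug vs vehicle; endpoint survival or tumor size; value = T/C.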

[1] = dose: 75.0 mg/kg/injection, schedule: Q04DX003 (sc), vehicle: saline
[2] = dose: 150.0 mg/kg/injection, schedule: Q04DX003 (sc), vehicle: saline
[3] = dose: 300.0 mg/kg/injection, schedule: Q04DX003 (sc), vehicle: saline
[4] = dose: 80.0 mg/kg/injection, schedule: Q04DX003 (sc), vehicle: water
[5] = dose: 160.0 mg/kg/injection, schedule: Q04DX003 (sc), vehicle: water
[6] = dose: 50.0 mg/kg/injection, schedule: Q04DX003 (ip), vehicle: other
[7] = dose: 100.0 mg/kg/injection, schedule: Q04DX003 (ip), vehicle: other
[8] = dose: 12.5 mg/kg/injection, schedule: Q04DX003 (ip), vehicle: water
[9] = dose: 25.0 mg/kg/injection, schedule: Q04DX003 (ip), vehicle: water
[10] = dose: 50.0 mg/kg/injection, schedule: Q04DX003 (ip), vehicle: water
[11] = dose: 100.0 mg/kg/injection, schedule: Q04DX003 (ip), vehicle: water

Compound: O=C1CNC(=O)N1CN1CCOCC1
- T/C (dose: 150.0 mg/kg/injection, schedule: Q04DX003 (ip), vehicle: Klucel (hydroxypropylcellulose) (HPC)): 83 % of control
- T/C (dose: 300.0 mg/kg/injection, schedule: Q04DX003 (ip), vehicle: Klucel (hydroxypropylcellulose) (HPC)): 89 % of control
- T/C (dose: 600.0 mg/kg/injection, schedule: Q04DX003 (ip), vehicle: Klucel (hydroxypropylcellulose) (HPC)): 81 % of control

Compound: CCCC(=O)OCc1cc(=O)n(C)c2c3c4c(cc12)c(C)cc(=O)n4CO3
- T/C (dose: 50.0 mg/kg/injection, schedule: Q01DX010 (sc), vehicle: Klucel (hydroxypropylcellulose) (HPC)): 79 % of control
- T/C (dose: 100.0 mg/kg/injection, schedule: Q01DX010 (sc), vehicle: Klucel (hydroxypropylcellulose) (HPC)): 75 % of control
- T/C (dose: 200.0 mg/kg/injection, schedule: Q01DX010 (sc), vehicle: Klucel (hydroxypropylcellulose) (HPC)): 64 % of control
- T/C (dose: 400.0 mg/kg/injection, schedule: Q01DX010 (sc), vehicle: Klucel (hydroxypropylcellulose) (HPC)): 66 % of control
- T/C (dose: 800.0 mg/kg/injection, schedule: Q01DX010 (sc), vehicle: Klucel (hydroxypropylcellulose) (HPC)): 61 % of control

Compound: COc1cc2cc3c(c(O)c2c(O)c1/C=C/C(C)C)C(=O)CC(C)(OC(C)=O)C3 (configuration not stated)
- T/C (dose: 5.0 mg/kg/injection, schedule: Q04DX003 (ip), vehicle: Klucel (hydroxypropylcellulose) (HPC)): 85 % of control
- T/C (dose: 10.0 mg/kg/injection, schedule: Q04DX003 (ip), vehicle: Klucel (hydroxypropylcellulose) (HPC)): 66 % of control
- T/C (dose: 20.0 mg/kg/injection, schedule: Q04DX003 (ip), vehicle: Klucel (hydroxypropylcellulose) (HPC)): 63 % of control

Compound: N/C(=N\O)c1cn(C2OC(CO)C(O)C2O)c2ncnc(N)c12 (configuration not stated)
- T/C (dose: 5.0 mg/kg/injection, schedule: Q04DX003 (sc), vehicle: Klucel (hydroxypropylcellulose) (HPC)): 91 % of control
- T/C (dose: 10.0 mg/kg/injection, schedule: Q04DX003 (sc), vehicle: Klucel (hydroxypropylcellulose) (HPC)): 70 % of control

Compound: O=C(Nc1cccc(Cl)c1)ON1C(=O)C2C(C1=O)C1(Cl)C(Cl)C(Cl)C2(Cl)C1(Cl)Cl (configuration not stated)
- T/C (dose: 300.0 mg/kg/injection, schedule: Q04DX003 (sc), vehicle: saline with Tween-80): 91 % of control
- T/C (dose: 600.0 mg/kg/injection, schedule: Q04DX003 (sc), vehicle: saline with Tween-80): 100 % of control
- T/C (dose: 1200.0 mg/kg/injection, schedule: Q04DX003 (sc), vehicle: saline with Tween-80): 91 % of control
- T/C (dose: 2400.0 mg/kg/injection, schedule: Q04DX003 (sc), vehicle: saline with Tween-80): 114 % of control

Compound: CN(CCN(C)C(=O)CCOS(C)(=O)=O)C(=O)CCOS(C)(=O)=O
- T/C (dose: 37.5 mg/kg/injection, schedule: Q04DX003 (sc), vehicle: saline): 7 % of control
- T/C [1]: -100 % of control
- T/C [2]: -100 % of control
- T/C [3]: -44 % of control

Compound: COc1ccc2c(c1)CCn1c(C)c(COC(=O)NC(C)C)c(COC(=O)NC(C)C)c1-2
- T/C (dose: 75.0 mg/kg/injection, schedule: Q04DX003 (ip), vehicle: distilled water + Tween-80): -29 % of control

Compound: CCC12C[N+]3([O-])CCc4c([nH]c5ccccc45)C(C(=O)OC)(c4cc5c(cc4OC)N(C)C4C(O)(C(=O)OC)C(OC(C)=O)C6(CC)C=CCN7CCC54C76)CC(C3)C1O2 (configuration not stated)
- T/C [4]: 109 % of control
- T/C [5]: 117 % of control
- T/C (dose: 320.0 mg/kg/injection, schedule: Q04DX003 (sc), vehicle: water): 123 % of control
- T/C (dose: 640.0 mg/kg/injection, schedule: Q04DX003 (sc), vehicle: water): 88 % of control

Compound: CCCCCCCCCCC(OC(C)=O)C1CCC(C2CCC(C(O)CCCCCCCCCCCCC3C=C(C)OC3=O)O2)O1 (configuration not stated)
- T/C (dose: 20.0 mg/kg/injection, schedule: Q04DX003 (sc), vehicle: water): 80 % of control
- T/C (dose: 40.0 mg/kg/injection, schedule: Q04DX003 (sc), vehicle: water): 72 % of control
- T/C [4]: 71 % of control
- T/C [5]: 70 % of control

Compound: c1ccc2c(c1)[As]=c1ccccc1=[As]2 (configuration not stated)
- T/C [1]: 108 % of control
- T/C [2]: 87 % of control
- T/C [3]: 99 % of control

Compound: [NH-]C(CCC(N)=O)C(=O)O.[NH-]C(CCC(N)=O)C(=O)O.[Zn+2] (configuration not stated)
- T/C (dose: 75.0 mg/kg/injection, schedule: Q04DX003 (ip), vehicle: saline with Tween-80): 97 % of control

Compound: N/C(=N/N=C/c1cc(Br)cc(Br)c1O)NO
- T/C (dose: 50.0 mg/kg/injection, schedule: Q04DX003 (ip), vehicle: suspension in saline): 107 % of control
- T/C (dose: 200.0 mg/kg/injection, schedule: Q04DX003 (ip), vehicle: suspension in saline): 27 % of control

Compound: COc1cccc2c1C(=O)c1c(O)c3c(c(O)c1C2=O)C[C@@](O)(C(=O)CO)C[C@@H]3OC1CC(N)C(O)C(C)O1 (some centres not stated)
- T/C (dose: 2.0 mg/kg/injection, schedule: Q04DX003 (ip), vehicle: water): 33 % of control
- T/C (dose: 4.0 mg/kg/injection, schedule: Q04DX003 (ip), vehicle: water): 7 % of control
- T/C (dose: 8.0 mg/kg/injection, schedule: Q04DX003 (ip), vehicle: water): -88 % of control

Compound: COc1cccc2c1C(=O)c1c(O)c3c(c(O)c1C2=O)C[C@](O)(C(=O)CO)CC3OC1CC(N)C(OC2CCCCO2)C(C)O1 (some centres not stated)
- T/C (dose: 7.5 mg/kg/injection, schedule: Q04DX003 (ip), vehicle: water): 21 % of control

Compound: O=C1c2cccc(NCCCNCCO)c2C(=O)c2cccc(NCCCNCCO)c21
- T/C (dose: 18.75 mg/kg/injection, schedule: Q04DX003 (ip), vehicle: acid diluted with saline): 89 % of control
- T/C (dose: 37.5 mg/kg/injection, schedule: Q04DX003 (ip), vehicle: acid diluted with saline): 171 % of control

Compound: CCN(CC)c1cc(C(=O)O)cc(N(CC)CC)n1
- T/C [6]: 155 % of control
- T/C [7]: 74 % of control

Compound: ClC1(Cl)Cc2ccccc21
- T/C (dose: 150.0 mg/kg/injection, schedule: Q04DX003 (ip), vehicle: saline with Tween-80): 109 % of control
- T/C (dose: 300.0 mg/kg/injection, schedule: Q04DX003 (ip), vehicle: saline with Tween-80): 109 % of control
- T/C (dose: 600.0 mg/kg/injection, schedule: Q04DX003 (ip), vehicle: saline with Tween-80): 45 % of control

Compound: [Cl][Pt][Cl].[NH-]C(CO)C(=O)O (configuration not stated)
- T/C [8]: 92 % of control
- T/C [9]: 100 % of control
- T/C (dose: 37.5 mg/kg/injection, schedule: Q04DX003 (ip), vehicle: water): 57 % of control
- T/C [10]: 100 % of control
- T/C (dose: 75.0 mg/kg/injection, schedule: Q04DX003 (ip), vehicle: water): 11 % of control
- T/C [11]: 16 % of control

Compound: N#Cc1ccc(NN=O)nc1
- T/C (dose: 12.5 mg/kg/injection, schedule: Q04DX003 (ip), vehicle: other): 95 % of control
- T/C [8]: 38 % of control and 41 % of control
- T/C (dose: 25.0 mg/kg/injection, schedule: Q04DX003 (ip), vehicle: other): 20 % of control
- T/C [9]: 7 % of control and 9 % of control
- T/C [6]: 4 % of control
- T/C [10]: 1 % of control and 12 % of control
- T/C [7]: -92 % of control
- T/C [11]: -86 % of control

Compound: CC(=O)O[C@H]1C(=O)[C@@]2(C)C(C(OC(=O)c3ccccc3)[C@]3(O)C[C@H](OC(=O)C(OC(=O)CCCC(=O)NCCCN(C)C)C(NC(=O)c4ccccc4)c4ccccc4)C(C)=C1C3(C)C)C1(OC(C)=O)COC1C[C@@H]2O (some centres not stated)
- T/C (dose: 2.5 mg/kg/injection, schedule: Q01DX009 (ip), vehicle: water): 22 % of control
- T/C (dose: 5.0 mg/kg/injection, schedule: Q01DX009 (ip), vehicle: water): 1 % of control
- T/C (dose: 10.0 mg/kg/injection, schedule: Q01DX009 (ip), vehicle: water): 1 % of control
- T/C (dose: 20.0 mg/kg/injection, schedule: Q01DX009 (ip), vehicle: water): -100 % of control
- T/C (dose: 40.0 mg/kg/injection, schedule: Q01DX009 (ip), vehicle: water): -100 % of control

Compound: CNNCc1ccc(C(=O)NC(C)C)cc1
- T/C (dose: 50.0 mg/kg/injection, schedule: Q01DX010 (sc), vehicle: saline): 97 % of control
- T/C (dose: 100.0 mg/kg/injection, schedule: Q01DX010 (sc), vehicle: saline): 70 % of control
- T/C (dose: 200.0 mg/kg/injection, schedule: Q01DX010 (sc), vehicle: saline): 45 % of control
- T/C (dose: 400.0 mg/kg/injection, schedule: Q01DX010 (sc), vehicle: saline): 4 % of control

Compound: Cc1cc2c(=O)cc(-c3ccccc3)oc2c(C(=O)O)c1C
- T/C (dose: 125.0 mg/kg/injection, schedule: Q04DX003 (ip), vehicle: saline with Tween-80): 109 % of control
- T/C (dose: 250.0 mg/kg/injection, schedule: Q04DX003 (ip), vehicle: saline with Tween-80): 99 % of control

— PubChem BioAssay AID298 (DTP/NCI, 2004)
